The source of these data is DBAASP.

≈ marks a conversion by molar mass, not a printed value.

Among the test systems are Escherichia coli K-12; Streptococcus uberis; Leuconostoc lactis; Escherichia coli; Salmonella sp.; Yersinia enterocolitica; Escherichia coli W3110; Staphylococcus aureus; Escherichia coli D31; Escherichia coli BL21AI.
What all share (assay): ≥ marks a high value that may be exact or a test limit, other limits are often not marked, values filed in µg/mL are converted to µM
For experiment [1], the system named is Staphylococcus aureus USA 300.
Experiment [2] relates to Staphylococcus aureus ATCC 43300.
The subject of experiment [3] is Staphylococcus aureus ATCC 29213.
In experiment [4] the test system is Pseudomonas aeruginosa ATCC 27853.
The subject of experiment [5] is Escherichia coli ATCC 25922.
Experiment [6] deals with Salmonella enterica subsp. enterica serovar Enteritidis.
Experiment [7] relates to Klebsiella pneumoniae ATCC BAA-1705.
For experiment [8], the system named is Candida albicans FRR 5580.
Experiment [9] concerns Staphylococcus aureus ATCC 25923.
Experiment [10] relates to Pseudomonas aeruginosa ATCC 9027.
Experiment [11] relates to Staphylococcus aureus ATCC 6538.
Experiment [12] relates to Micrococcus luteus ATCC 4698.
The test system of experiment [13] is Escherichia coli DH5alpha.
The subject of experiment [14] is Staphylococcus epidermidis ATCC 12228.
Experiment [15] deals with Staphylococcus aureus CIP 677.
The subject of experiment [16] is Lactococcus lactis subsp. cremoris I116.
Experiment [17] relates to Salmonella enterica subsp. enterica serovar Typhimurium ATCC 700408.
The test system of experiment [18] is Klebsiella pneumoniae K6 ATCC 700603.
Experiment [19] concerns Micrococcus luteus ATCC 10240.
Experiment [20] has as its system Escherichia coli ATCC 11229.
The subject of experiment [21] is Staphylococcus aureus ATCC 33591.

A word on the MIC: it is the smallest concentration in the dilution series that meets the test's criterion for growth inhibition. In the case of `CC(C)C[C@H](NC(=O)CN)C(=O)N[C@@H](C)C(=O)N[C@@H](CC(=O)O)C(=O)N[C@@H](Cc1ccccc1)C(=O)N[C@@H](CC(C)C)C(=O)N[C@@H](CC(N)=O)C(=O)N[C@@H](CCCCN)C(=O)N[C@@H](C)C(=O)N[C@H](C(=O)NCC(=O)N[C@@H](CCCCN)C(=O)N[C@H](C(=O)N[C@H](C(=O)N[C@@H](CC(=O)O)C(=O)N[C@@H](Cc1ccccc1)C(=O)N[C@H](C(=O)N[C@@H](CCCCN)C(=O)N[C@@H](CO)C(N)=O)C(C)C)C(C)C)C(C)C)C(C)C` [GLADFLNKAVGKVVDFVKS], the MIC is ≥ 100 µM in the experiment on Escherichia coli K-12, ≥ 100 µM in [1], ≥ 50 µM against Streptococcus uberis and 25 µM (≈ 50.2 µg/mL) against Leuconostoc lactis.
With `NCCCC[C@H](NC(=O)[C@H](CCCCN)NC(=O)[C@H](Cc1ccccc1)NC(=O)[C@H](CCCCN)NC(=O)[C@H](CCCN=C(N)N)NC(=O)[C@H](CCCN=C(N)N)NC(=O)[C@H](Cc1ccccc1)NC(=O)[C@H](CCCCN)NC(=O)[C@@H](N)CCCN=C(N)N)C(N)=O` [RKFRRKFKK], the minimum inhibitory concentration (MIC) in experiment [2] was > 50 µM; against Escherichia coli, > 50 µM; in experiment [3], > 50 µM; in experiment [4], > 50 µM; in experiment [5] it was > 50 µM; in [6] it was ≥ 50 µM. The MIC against Salmonella sp. and against Yersinia enterocolitica was ≥ 50 µM in each case.
Take `CC[C@H](C)[C@H](NC(=O)[C@H](CCCCN)NC(=O)[C@H](CCCCN)NC(=O)[C@H](Cc1ccc(O)cc1)NC(=O)[C@H](CCCCN)NC(=O)[C@H](CC(C)C)NC(=O)[C@H](CC(C)C)NC(=O)[C@H](CCCCN)NC(=O)[C@H](CC(C)C)NC(=O)CNC(=O)[C@H](Cc1c[nH]c2ccccc12)NC(=O)[C@H](CS)NC(=O)[C@H](C)NC(=O)[C@H](Cc1c[nH]c2ccccc12)NC(=O)[C@H](CCCN=C(N)N)NC(=O)[C@@H](N)Cc1c[nH]c2ccccc12)C(=O)N[C@@H](Cc1ccc(O)cc1)C(=O)O` [WRWACWGLKLLKYKKIY]: the minimal inhibitory concentration (MIC) in experiment [7] is ≥ 64 µM; against Escherichia coli W3110 it was 1 µM (≈ 2.26 µg/mL).
In the case of `NCCCC[C@H](NC(=O)[C@H](Cc1c[nH]c2ccccc12)NC(=O)[C@H](Cc1c[nH]c2ccccc12)NC(=O)[C@H](CCCN=C(N)N)NC(=O)[C@@H](N)Cc1c[nH]c2ccccc12)C(=O)N[C@@H](Cc1c[nH]c2ccccc12)C(=O)N[C@@H](Cc1c[nH]c2ccccc12)C(N)=O` [WRWWKWW], the minimal inhibitory concentration (MIC) against Staphylococcus aureus was 6.49 µM (≈ 7.99 µg/mL); in experiment [8], ≥ 51.9 µM; in [9], 6.49 µM (≈ 7.99 µg/mL); in experiment [5] it was 3.24 µM (≈ 4 µg/mL); in experiment [10] it was 25.9 µM (≈ 32 µg/mL).
Take `CC(C)C[C@H](NC(=O)[C@H](CC(C)C)NC(=O)[C@H](CCCCN)NC(=O)[C@H](CO)NC(=O)[C@H](CC(C)C)NC(=O)[C@H](C)NC(=O)[C@H](CCCCN)NC(=O)[C@H](Cc1ccccc1)NC(=O)[C@H](CC(C)C)NC(=O)[C@H](C)NC(=O)[C@H](CCCCN)NC(=O)[C@H](CC(C)C)NC(=O)[C@@H](N)Cc1ccccc1)C(=O)O` [FLKALFKALSKLL]: the minimum inhibitory concentration (MIC) turned out to be 4.02 µM (≈ 6 µg/mL) in experiment [11], 2.68 µM (≈ 4 µg/mL) in experiment [12], 16.8 µM (≈ 25 µg/mL) in experiment [13] and 6.7 µM (≈ 10 µg/mL) in experiment [14].
As for `CC[C@H](C)[C@H](NC(=O)CN)C(=O)N[C@@H](Cc1c[nH]c2ccccc12)C(=O)NCC(=O)N[C@H](C(=O)N[C@@H](CC(C)C)C(=O)N[C@@H](C)C(=O)N[C@@H](CCCCN)C(=O)N[C@H](C(=O)NCC(=O)N[C@H](C(=O)N[C@@H](CCCCN)C(=O)N[C@@H](C)C(=O)N[C@H](C(=O)N1CCC[C@H]1C(=O)N[C@@H](CCCN=C(N)N)C(=O)N[C@H](C(=O)N[C@H](C(=O)N[C@@H](CO)C(=O)N[C@@H](CCSC)C(=O)N[C@@H](CC(C)C)C(=O)N[C@@H](CCCCN)C(=O)N[C@@H](CCCCN)C(=O)N[C@@H](CCCCN)C(=O)N[C@@H](CCC(N)=O)C(=O)O)[C@@H](C)CC)C(C)C)C(C)C)[C@@H](C)CC)[C@@H](C)CC)[C@@H](C)O` [GIWGTLAKIGIKAVPRVISMLKKKQ], the minimum inhibitory concentration (MIC) stood at 8 µM (≈ 21.9 µg/mL) in experiment [15] and 4 µM (≈ 10.9 µg/mL) in experiment [16].
Regarding `CC[C@H](C)[C@H](NC(=O)[C@H](Cc1ccc(O)cc1)NC(=O)[C@@H](NC(=O)[C@@H]1CCCN1C(=O)[C@H](CCCN=C(N)N)NC(=O)[C@H](CC(N)=O)NC(=O)[C@H](CC(N)=O)NC(=O)CN)C(C)C)C(=O)N1CCC[C@H]1C(=O)N[C@@H](CCC(N)=O)C(=O)N1CCC[C@H]1C(=O)N[C@@H](CCCN=C(N)N)C(=O)N1CCC[C@H]1C(=O)N1CCC[C@H]1C(=O)N[C@@H](Cc1cnc[nH]1)C(=O)N1CCC[C@H]1C(=O)N[C@@H](CCCN=C(N)N)C(=O)N[C@@H](Cc1ccccc1)C(N)=O` [GNNRPVYIPQPRPPHPRF], the minimum inhibitory concentration (MIC) is 1.87 µM (≈ 4 µg/mL) in experiment [17], ≥ 59.7 µM in the experiment with Escherichia coli D31 and 29.9 µM (≈ 64 µg/mL) in [18].
Take `NCCCC[C@H](NC(=O)[C@H](Cc1c[nH]c2ccccc12)NC(=O)[C@H](Cc1c[nH]c2ccccc12)NC(=O)[C@H](CCCCN)NC(=O)[C@H](Cc1c[nH]c2ccccc12)NC(=O)[C@H](Cc1c[nH]c2ccccc12)NC(=O)[C@H](CCCN=C(N)N)NC(=O)[C@@H](N)Cc1c[nH]c2ccccc12)C(N)=O` [WRWWKWWK]: the MIC in experiment [8] is ≥ 47 µM; in experiment [9], 5.88 µM (≈ 7.99 µg/mL); in experiment [5], 2.94 µM (≈ 4 µg/mL); in experiment [10], 23.5 µM (≈ 32 µg/mL).
`CC[C@H](C)[C@H](NC(=O)[C@H](Cc1ccc(O)cc1)NC(=O)[C@@H](NC(=O)[C@@H]1CCCN1C(=O)[C@H](CCCN=C(N)N)NC(=O)[C@H](CC(N)=O)NC(=O)[C@H](CC(N)=O)NC(=O)CN)C(C)C)C(=O)N[C@@H](C)C(=O)N[C@@H](CCC(N)=O)C(=O)N1CCC[C@H]1C(=O)N[C@@H](CCCN=C(N)N)C(=O)N1CCC[C@H]1C(=O)N1CCC[C@H]1C(=O)N[C@@H](Cc1cnc[nH]1)C(=O)N1CCC[C@H]1C(=O)N[C@@H](CCCN=C(N)N)C(=O)N[C@@H](CC(C)C)C(N)=O` [GNNRPVYIAQPRPPHPRL]: the minimal inhibitory concentration (MIC) (against Escherichia coli BL21AI; in [19]) was ≥ 60 µM throughout.
In the case of `CC[C@H](C)[C@H](NC(=O)[C@H](CCCN=C(N)N)NC(=O)[C@H](CCSC)NC(=O)[C@H](C)NC(=O)[C@H](CCCN=C(N)N)NC(=O)CNC(=O)[C@H](C)NC(=O)[C@@H](NC(=O)[C@@H](N)CO)C(C)C)C(=O)NCC(=O)N[C@@H](CC(C)C)C(=O)N[C@@H](CCCN=C(N)N)C(=O)N[C@@H](Cc1ccccc1)C(=O)N[C@H](C(=O)N[C@@H](CC(C)C)C(=O)N[C@@H](CCSC)C(=O)O)C(C)C` [SVAGRAMRIGLRFVLM], the MIC is ≥ 36 µM in [20], 36 µM (≈ 64 µg/mL) in experiment [9], 36 µM (≈ 64 µg/mL) in experiment [3] and ≥ 36 µM in experiment [21].
In the case of `CC(C)C[C@H](NC(=O)[C@H](CC(C)C)NC(=O)[C@H](CCCCN)NC(=O)[C@H](CO)NC(=O)[C@H](CC(C)C)NC(=O)[C@H](C)NC(=O)[C@H](CCCCN)NC(=O)[C@H](Cc1ccccc1)NC(=O)[C@@H](NC(=O)[C@H](C)NC(=O)CNC(=O)[C@H](CC(C)C)NC(=O)[C@@H](N)Cc1ccccc1)C(C)C)C(=O)O` [FLGAVFKALSKLL], the minimum inhibitory concentration (MIC) is 7.82 µM (≈ 11 µg/mL) in [11], 4.27 µM (≈ 6 µg/mL) in experiment [12], 21.3 µM (≈ 30 µg/mL) in [13] and 12.8 µM (≈ 18 µg/mL) in [14].
